Laboratory results as given in patent publication US20150157648A1, “NUTRITIONAL APPROACH TO IMPROVING ATHLETIC PERFORMANCE AND REDUCING INJURY WITH L-ERGOTHIONEINE AND/OR VITAMIN D2” (priority 2012, published 2015).

What was measured:
[1] = after mushroom consumption, healthy men; cited from earlier work
glutathione (GSH) = experiment: kinetic assay of plasma glutathione (GSH) in Pac-Tg (SNCA) transgenic mice; format: in vivo; details: trend only: p=0.10 (Pleurotus), p=0.09 (NAC)
Experimental: Our Pac-Tg (SNCA) mice transgenic mice express the human gene for human alpha-synuclein and these were assigned one of four treatment paradigms (including no treatment). Plasma samples taken from these mice were evaluated in duplicate using a kinetic assay protocol for the presence of glutathione (GSH), a measure of resilience to oxidative stress. The tested subject groups were treated with one of the following: Blazei Mushroom, Pleurotus mushroom, or n-acetyl cysteine (NAC). The results for these groups were compared to those for both untreated and wild-type controls.
Data. A serial dilution of provided standard solution allowed for the creation of a standard curve following kinetic absorbance readings (FIGS. 6A and B). The change in absorbance (Vmax) over five minutes (six absorbance readings) was calculated for each standard and plotted against each standard's known GSH concentration. […] The change in absorbance for the second standard was calculated using only the first two kinetic readings (t=0, t=1) for the same reason. […] A linear regression of the resulting standard curve allowed for extrapolation of GSH levels in the assayed plasma samples based on their changes in absorbance (Vmax) over six minute-reads.
Following tabulation of the data, results were omitted if they were not reproducible in duplicate using all six kinetic readings and within 30% precision. […]

alpha-synuclein = alpha-synuclein ELISA of plasma, cortex and midbrain of SNCA transgenic mice; format: in vivo, mouse; details: three months of diet; untreated controls 2.52±0.28
Text: Matched cohorts of an SNCA transgenic mouse model of PD were used to measure the therapeutic efficacy of the medical food formulation ErgoD2TM, created from a single mushroom species, Pleurotus […]. The outcomes measurements assessed improvement in grip strength and alpha-synuclein levels in the cortex and/or midbrain of the PD animals. […] No detectable motor behavior impairments, autonomic abnormalities, olfactory dysfunction, dopaminergic deficits, Lewy body inclusions or neurodegeneration are associated with α-synuclein expression in these mice (Kuo et al., 2010). As outlined in the results section, the mice were grouped at ten (10) mice/cohort and were fed a purina diet for three months with and without addition of the medical food ErgoD2TM, provided by Entia Biosciences, Inc. Three (3) test diets were created with the assistance of Carrie Schultz, Ph.D., Land O'Lakes Purina Feed, and each diet was color-coded. […] Alpha-synuclein was measured using an ELISA kit (Invitrogen, Hu α-Synuclein ELISA Kit) according to the manufacturer's protocol. The α-synuclein concentration of each 1 mL homogenized midbrain lysate was calculated by interpolating absorbance readings to a standard curve and adjusting for necessary dilution factors and protein equivalencies. The mean α-synuclein concentration of the samples in each treatment group was then calculated. […]

IL-6 = IL-6 ELISA of whole blood cell lysate from alpha synuclein transgenic mice; format: in vivo; details: one remaining sample per treatment group
Experimental: We pursued this effect in our mice since the role of IL-6 and other neuroimmune factors need to be elucidated on PD. Alpha synuclein transgenic mice expressing the human gene for alpha-synuclein were treated with the medical food ErgoD2™ (Pleurotus; Table 3) or N-Acetylcysteine (NAC), and whole blood cell lysate samples from these mice were evaluated in triplicate using an ELISA for the presence of IL-6. The results were compared to those from untreated and wild-type controls.
A serial dilution of provided standard solution allowed for the creation of a standard curve following absorbency reading. An exponential regression of this curve was used to extrapolate the concentration of IL-6 in the lysate samples based on their final absorbency values and accounting for dilution factors of the samples.
Lysate samples taken from subjects #222 and #321 were clotted. A small amount of each was used during assay, but their relatively high corresponding dilution factors call into question the findings based on these samples.

[2] = test system: SNCA transgenic mouse model of PD; experiment: grip strength task in SNCA transgenic mouse model of PD; format: in vivo; details: PD model mice, three months of treatment
Text: Matched cohorts of an SNCA transgenic mouse model of PD were used to measure the therapeutic efficacy of the medical food formulation ErgoD2TM, created from a single mushroom species, Pleurotus […]. The outcomes measurements assessed improvement in grip strength and alpha-synuclein levels in the cortex and/or midbrain of the PD animals. […] No detectable motor behavior impairments, autonomic abnormalities, olfactory dysfunction, dopaminergic deficits, Lewy body inclusions or neurodegeneration are associated with α-synuclein expression in these mice (Kuo et al., 2010). As outlined in the results section, the mice were grouped at ten (10) mice/cohort and were fed a purina diet for three months with and without addition of the medical food ErgoD2TM, provided by Entia Biosciences, Inc. Three (3) test diets were created with the assistance of Carrie Schultz, Ph.D., Land O'Lakes Purina Feed, and each diet was color-coded. The control/placebo mouse diet consisted of Purina Modified LabDiet® (RMH 3000). The two treatment diets were RMH 3000 supplemented with (i) synthetic N-Acetyl Cysteine (NAC) @ 0.015% of total weight and (ii) the medical food ErgoD2TM @ 0.5% of total weight. […] The mouse is then pulled back gently until the grip is released and peak force at the point of release is recorded in Kg. […]

[3] = test system: Alzheimer's disease mutant fruit fly; experiment: survival and life span of Alzheimer's disease (APP over-expression) Drosophila model; format: in vivo; details: APP induced in central brain by GAL4 driver
Text: Type of Model (with specific Drosophila model of neurodegeneration, with references). The targeted over/ectopic expression of APP in the brain using a UAS promoter driven APP transgene, induced by a specific GAL4 trans-driver in the brain of a Drosophila model system, was used for this Example. Below is a reference for such over-expression of APP in the Drosophila model system and the combination gives a fully penetrant AD with limited life-span.
β-Amyloid peptides and amyloid precursor protein (APP) play a deterministic role in Alzheimer's disease (AD). In Drosophila, the targeted expression of the key genes of AD, APP, causes generation of β-amyloid plaques and age-dependent neurodegeneration as well as progression to semi lethality, a shortened life span; genetic manipulations or pharmacological treatments with secretase inhibitors influenced the activity of the APP-processing proteases and modulated the severity of the phenotypes (Greeve I., et al., J. Neuroscience 24, 3899-3906 (2004)). The AD strain lives only for a few days after their eclosion (birth) as opposed to 65 days or more for wild type normal strains.
We determined the extension of life span in the mutant strain for each test compound. We used a specific GAL4 driver that induces the APP gene in the central brain area at high levels (see above) and results in a fully penetrant lethality within a 2-3 weeks period.

Drosophila melanogaster = experiment: survival of Drosophila under Paraquat-induced oxidative stress; format: in vivo; details: for effect on Paraquat-induced oxidative stress (in words): single nutrient, pure form
Experimental: The effect of Agaricus Blazei without enrichment, with Vitamin D2 enrichment, pure Vitamin D2 and control (vehicle for the delivery) on the survival rate of Drosophila melanogaster under Paraquat-induced oxidative stress condition was tested. The study focused on the control of Paraquat induced oxidative stress/biologic death. Paraquat is a very potent oxidative stress inducing chemical and causes death in animals and plants by the toxicity of released free radicals. Paraquat (10 mM concentration) (Sigma Aldrich) was used to chemically induce oxidative stress. Paraquat is the trade name for N,N′-dimethyl-4,4′-bipyridinium dichloride, a widely used herbicide. Paraquat, a viologen, is quick-acting and non-selective, killing green plant tissue on contact. It is also toxic to humans when swallowed. This is the most standard chemical used in experimental induction of oxidative stress using the Drosophila model system. It catalyzes the formation of reactive oxygen species (ROS). Paraquat will undergo redox cycling in vivo, gets reduced by an electron donor such NADPH, before being oxidized by an electron receptor such as dioxygen to produce superoxide, a major ROS.
The following materials and methods were utilized. Vials containing 10 mM Paraquat (from Sigma Aldrich) in 5 ml of 1.2% Low melting point Agarose medium were prepared. A strip of half moist filter paper was inserted in the medium (with the wet end in). Yeast paste containing 1% concentration (w/w) of the various test materials (see above) mixed to homogeneity was prepared. Yeast paste without drug was used as control. Uniform aliquot (˜300 mg) of yeast paste with or without the test material) was applied to vials in such a way that yeast paste was on the glass surface and covered the dry end (top) of the filter paper strip. Freshly enclosed wild type isogenized Canton-S males and females were collected and starved on 1% agar medium for 5-6 hours. […] Flies were transferred once in 2 days and the number of flies surviving at each transfer was recorded.

For C[N+](C)(C)[C@@H](Cc1c[nH]c(=S)[nH]1)C(=O)[O-] [ET, L-Ergothioneine], the “time to peak of ET in red blood cells (RBC)” value [1] is given as 2 h.

For CC(=O)N[C@@H](CS)C(=O)O [NAC, N-Acetylcysteine], the “plasma glutathione concentration vs. untreated mice” value (glutathione (GSH)) was “higher concentrations of glutathione”, the “mean midbrain α-synuclein concentration” value (alpha-synuclein) was 2.17 ± 0.31 µg/mL and the “IL-6 more than the untreated group” value (IL-6) was 8.7 pg/mL. The “IL-6 more than the wild-type group” value (IL-6) was 9.5 pg/mL and the “grip testing (in words)” value [2] was “statistically significant improvement”.

With C=C1CC[C@H](O)C/C1=C/C=C1\CCC[C@]2(C)[C@@H]([C@H](C)CCCC(C)C)CC[C@@H]12 [Vitamin D3, cholecalciferol] the “survival rate of AD flies versus control” value [3] was “no such effect” and the “effect on Paraquat-induced oxidative stress (in words)” value (Drosophila melanogaster) was “no beneficial effect”.

With C=C1CC[C@H](O)C/C1=C/C=C1\CCC[C@]2(C)[C@@H]([C@H](C)/C=C/[C@H](C)C(C)C)CC[C@@H]12 [pure Vitamin D2, Ergocalciferol] the “survival rate of AD flies versus control” value [3] was “no such effect”, the “survivability under Paraquat-induced oxidative stress” value (Drosophila melanogaster; 10 mM Paraquat, 1% (w/w) test material in yeast paste, 10 days, 25 degrees C) was 13%+/−3% and the “effect on Paraquat-induced oxidative stress (in words)” value (Drosophila melanogaster) was “no beneficial effect”.
